{
  "source": "ChEMBL document CHEMBL3885861",
  "about": "“Open TG-GATES”",
  "species_on_record": "Rattus norvegicus",
  "assay": "Open TG-GATES - Regimen: Daily Repeat",
  "assay_type": "toxicity, organism-based, Sprague-Dawley",
  "design": "regimen Daily Repeat, gender Male, age 6 weeks",
  "conditions": "in vivo, po, 100 mg/kg, […], route gavage, dose level Low; for KIDNEY_L / KIDNEY_R / KIDNEY_TOTAL: tissue Kidney; for LIVER: tissue Liver; for A/G / ALP / ALT / AST / BUN / CRE / Ca / Cl / DBIL / GLC / IP / K / LDH / Na / PL / RALB / TBIL / TC / TG / TP / gamma-GTP: tissue Plasma",
  "data": [
    {"smiles": "CN(C)[C@@H]1C(O)=C(C(N)=O)C(=O)[C@@]2(O)C(O)=C3C(=O)c4c(O)cccc4[C@@](C)(O)[C@H]3C[C@@H]12", "note": "[TETRACYCLINE]", "values": [
      {"measurement": "Lym", "setting": "tissue Blood, time 28 day", "value": 90, "unit": "%"},
      {"measurement": "MCH", "setting": "tissue Blood, time 28 day", "value": 19, "unit": "pg"},
      {"measurement": "MCHC", "setting": "tissue Blood, time 28 day", "value": 33.4, "unit": "%"},
      {"measurement": "MCV", "setting": "tissue Blood, time 28 day", "value": 57.1, "unit": "fL"},
      {"measurement": "Mono", "setting": "tissue Blood, time 28 day", "value": 3.8, "unit": "%"},
      {"measurement": "Neu", "setting": "tissue Blood, time 28 day", "value": 5.2, "unit": "%"},
      {"measurement": "PT", "setting": "tissue Blood, time 28 day", "value": 12.1, "unit": "s"},
      {"measurement": "Plat", "setting": "tissue Blood, time 28 day", "value": 81, "unit": "x10_4/uL"},
      {"measurement": "RBC", "setting": "tissue Blood, time 28 day", "value": 780, "unit": "x10_4/ul"},
      {"measurement": "Ret", "setting": "tissue Blood, time 28 day", "value": 3.2, "unit": "%"},
      {"measurement": "WBC", "setting": "tissue Blood, time 28 day", "value": 163.8, "unit": "x10_2/uL"},
      {"measurement": "KIDNEY_L", "setting": "time 7 day", "value": 1, "unit": "g"},
      {"measurement": "KIDNEY_R", "setting": "time 7 day", "value": 1.1, "unit": "g"},
      {"measurement": "KIDNEY_TOTAL", "setting": "time 7 day", "value": 2.1, "unit": "g"},
      {"measurement": "KIDNEY_L", "setting": "time 14 day", "value": 1.1, "unit": "g"},
      {"measurement": "KIDNEY_R", "setting": "time 14 day", "value": 1.1, "unit": "g"},
      {"measurement": "KIDNEY_TOTAL", "setting": "time 14 day", "value": 2.2, "unit": "g"},
      {"measurement": "KIDNEY_L", "setting": "time 28 day", "value": 1.2, "unit": "g"},
      {"measurement": "KIDNEY_R", "setting": "time 28 day", "value": 1.2, "unit": "g"},
      {"measurement": "KIDNEY_TOTAL", "setting": "time 28 day", "value": 2.4, "unit": "g"},
      {"measurement": "LIVER", "setting": "time 7 day", "value": 11.4, "unit": "g"},
      {"measurement": "LIVER", "setting": "time 14 day", "value": 11.8, "unit": "g"},
      {"measurement": "LIVER", "setting": "time 28 day", "value": 13.6, "unit": "g"},
      {"measurement": "A/G", "setting": "time 7 day", "value": 2.1},
      {"measurement": "ALP", "setting": "time 7 day", "value": 738, "unit": "IU/L"},
      {"measurement": "ALT", "setting": "time 7 day", "value": 37.3, "unit": "IU/L"},
      {"measurement": "AST", "setting": "time 7 day", "value": 71, "unit": "IU/L"},
      {"measurement": "BUN", "setting": "time 7 day", "value": 19.7, "unit": "mg/dL"},
      {"measurement": "CRE", "setting": "time 7 day", "value": 0.6, "unit": "mg/dL"},
      {"measurement": "Ca", "setting": "time 7 day", "value": 11.4, "unit": "mg/dL"},
      {"measurement": "Cl", "setting": "time 7 day", "value": 105, "unit": "meq/L"},
      {"measurement": "DBIL", "setting": "time 7 day", "value": 0.0033, "unit": "mg/dL"},
      {"measurement": "GLC", "setting": "time 7 day", "value": 181.3, "unit": "mg/dL"},
      {"measurement": "IP", "setting": "time 7 day", "value": 9.9, "unit": "mg/dL"},
      {"measurement": "K", "setting": "time 7 day", "value": 5, "unit": "meq/L"},
      {"measurement": "LDH", "setting": "time 7 day", "value": 105.7, "unit": "IU/L"},
      {"measurement": "Na", "setting": "time 7 day", "value": 140, "unit": "meq/L"},
      {"measurement": "PL", "setting": "time 7 day", "value": 164.7, "unit": "mg/dL"},
      {"measurement": "RALB", "setting": "time 7 day", "value": 3.9, "unit": "g/dL"},
      {"measurement": "TBIL", "setting": "time 7 day", "value": 0.3, "unit": "mg/dL"},
      {"measurement": "TC", "setting": "time 7 day", "value": 86.3, "unit": "mg/dL"},
      {"measurement": "TG", "setting": "time 7 day", "value": 87.7, "unit": "mg/dL"},
      {"measurement": "TP", "setting": "time 7 day", "value": 5.9, "unit": "g/dL"},
      {"measurement": "gamma-GTP", "setting": "time 7 day", "value": 1.7, "unit": "IU/L"},
      {"measurement": "A/G", "setting": "time 14 day", "value": 2.3},
      {"measurement": "ALP", "setting": "time 14 day", "value": 983.4, "unit": "IU/L"},
      {"measurement": "ALT", "setting": "time 14 day", "value": 35.8, "unit": "IU/L"},
      {"measurement": "AST", "setting": "time 14 day", "value": 66.6, "unit": "IU/L"},
      {"measurement": "BUN", "setting": "time 14 day", "value": 17.2, "unit": "mg/dL"},
      {"measurement": "CRE", "setting": "time 14 day", "value": 0.6, "unit": "mg/dL"},
      {"measurement": "Ca", "setting": "time 14 day", "value": 10.9, "unit": "mg/dL"},
      {"measurement": "Cl", "setting": "time 14 day", "value": 104.4, "unit": "meq/L"},
      {"measurement": "DBIL", "setting": "time 14 day", "value": 0.002, "unit": "mg/dL"},
      {"measurement": "GLC", "setting": "time 14 day", "value": 177, "unit": "mg/dL"},
      {"measurement": "IP", "setting": "time 14 day", "value": 8.3, "unit": "mg/dL"},
      {"measurement": "K", "setting": "time 14 day", "value": 4.6, "unit": "meq/L"},
      {"measurement": "LDH", "setting": "time 14 day", "value": 79.2, "unit": "IU/L"},
      {"measurement": "Na", "setting": "time 14 day", "value": 141, "unit": "meq/L"},
      {"measurement": "PL", "setting": "time 14 day", "value": 149.6, "unit": "mg/dL"},
      {"measurement": "RALB", "setting": "time 14 day", "value": 4.1, "unit": "g/dL"},
      {"measurement": "TBIL", "setting": "time 14 day", "value": 0.4, "unit": "mg/dL"},
      {"measurement": "TC", "setting": "time 14 day", "value": 71, "unit": "mg/dL"},
      {"measurement": "TG", "setting": "time 14 day", "value": 107.4, "unit": "mg/dL"},
      {"measurement": "TP", "setting": "time 14 day", "value": 5.9, "unit": "g/dL"},
      {"measurement": "gamma-GTP", "setting": "time 14 day", "value": 2.6, "unit": "IU/L"},
      {"measurement": "A/G", "setting": "time 28 day", "value": 1.7},
      {"measurement": "ALP", "setting": "time 28 day", "value": 765.4, "unit": "IU/L"},
      {"measurement": "ALT", "setting": "time 28 day", "value": 30.2, "unit": "IU/L"},
      {"measurement": "AST", "setting": "time 28 day", "value": 61.8, "unit": "IU/L"},
      {"measurement": "BUN", "setting": "time 28 day", "value": 19.8, "unit": "mg/dL"},
      {"measurement": "CRE", "setting": "time 28 day", "value": 0.6, "unit": "mg/dL"},
      {"measurement": "Ca", "setting": "time 28 day", "value": 10.8, "unit": "mg/dL"},
      {"measurement": "Cl", "setting": "time 28 day", "value": 107.2, "unit": "meq/L"},
      {"measurement": "DBIL", "setting": "time 28 day", "value": 0.032, "unit": "mg/dL"},
      {"measurement": "GLC", "setting": "time 28 day", "value": 173.8, "unit": "mg/dL"},
      {"measurement": "IP", "setting": "time 28 day", "value": 7.5, "unit": "mg/dL"},
      {"measurement": "K", "setting": "time 28 day", "value": 4.2, "unit": "meq/L"},
      {"measurement": "LDH", "setting": "time 28 day", "value": 88.2, "unit": "IU/L"},
      {"measurement": "Na", "setting": "time 28 day", "value": 141.4, "unit": "meq/L"},
      {"measurement": "PL", "setting": "time 28 day", "value": 154, "unit": "mg/dL"},
      {"measurement": "RALB", "setting": "time 28 day", "value": 3.8, "unit": "g/dL"},
      {"measurement": "TBIL", "setting": "time 28 day", "value": 0.3, "unit": "mg/dL"},
      {"measurement": "TC", "setting": "time 28 day", "value": 73.8, "unit": "mg/dL"},
      {"measurement": "TG", "setting": "time 28 day", "value": 141.8, "unit": "mg/dL"},
      {"measurement": "TP", "setting": "time 28 day", "value": 6.2, "unit": "g/dL"},
      {"measurement": "gamma-GTP", "setting": "time 28 day", "value": 1.2, "unit": "IU/L"}
    ]}
  ]
}
